Reference: US20260226039A1, “INHIBITORS OF SOLVENT FRONT MUTATED RET KINASE” (Purdue Research Foundation, priority 2023, published 2026)
Numbering of substitutions follows the chain as printed. Converted amounts (≈) assume the structure as drawn.

Key:
B/KR(G810C) CDX tumors = assay: In vivo activity on B/KR(G810C) CDX tumors in mice; details: daily oral gavage
Protocol: Mice bearing B/KR(G810C) CDX tumors were treated with the test compounds at the indicated doses by daily oral gavage. Tumor dimensions were measured with a caliper, and tumor sizes were estimated using the Formula: tumor size=(Length×width×width)/2. The data shown are the mean±sd.
BaF3/KR(G810C) cells were tested free of 20 mouse pathogens (IDEXX, Columbia, MO) and mycoplasma. Cells (1×10^7 cells/0.1 ml/each) were inoculated subcutaneously into the right flank of approximately 5-week old female SHO mice (Charles River, Wilmington, MA). After tumor formation, mice (6 mice/group) were treated with vehicle or test compounds at the indicated doses by oral gavage once a day. Tumor size and animal body weight were measured as described. Statistical analysis was performed using the unpaired Mann-Whitney test.

[1] = Protein binding (human serum); format: in vitro ADME
Solubility at pH 6.8 = format: physicochemical
KIF5B-RET G810C = molecular target: T1, KIF5B-RET G810C (Homo sapiens, UniProt P07949, G810C); assay: Cell viability assay (CellTiter-Glo) in BaF3 cells expressing KIF5B-RET G810C; format: cell-based; details: B/KR mutant cell line G810C; read-out: IC50 of RET mutants, G810C
T1 construct: KIF5B (fusion partner); expressed in transfected cells; host or cells: BaF3; the other entry of the earlier key: KIF5B (P33176, Kinesin-1 heavy chain)
T1 sequence (P07949 713-1063 G810C limits assumed): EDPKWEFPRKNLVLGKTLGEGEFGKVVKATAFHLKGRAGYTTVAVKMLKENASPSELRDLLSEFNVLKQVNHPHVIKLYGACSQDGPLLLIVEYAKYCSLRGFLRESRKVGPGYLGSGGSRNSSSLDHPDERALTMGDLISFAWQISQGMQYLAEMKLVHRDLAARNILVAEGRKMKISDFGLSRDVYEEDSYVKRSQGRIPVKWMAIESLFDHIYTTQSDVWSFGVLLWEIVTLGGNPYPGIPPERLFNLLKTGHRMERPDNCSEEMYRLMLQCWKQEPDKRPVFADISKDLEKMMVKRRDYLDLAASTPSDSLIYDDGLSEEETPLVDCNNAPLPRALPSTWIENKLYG
From the text: (§1) KIF5B-RET G810D and G810V mutations were generated by PCR-based mutagenesis with primers containing the desired mutations. […] Drug screening and ICso data of BaF3/KR and mutation cells were from 2 or more experiments performed in 3 technical replicates.

KIF5B-RET G810D = molecular target: T2, KIF5B-RET G810D (Homo sapiens, UniProt P07949, G810D); assay: Cell viability assay (CellTiter-Glo) in BaF3 cells expressing KIF5B-RET G810D; format: cell-based; details: B/KR mutant cell line G810D; read-out: IC50 of RET mutants, G810D
T2 construct: KIF5B (fusion partner); expressed in transfected cells; host or cells: BaF3 (lentiviral vector); the other entry of the earlier key: KIF5B (P33176, Kinesin-1 heavy chain)
T2 sequence (P07949 713-1063 G810D limits assumed): T1 sequence (P07949 713-1063 G810C limits assumed) with C98D
From the text: as §1

KIF5B-RET G810R = molecular target: T3, KIF5B-RET G810R (Homo sapiens, UniProt P07949, G810R); assay: Cell viability assay (CellTiter-Glo) in BaF3 cells expressing KIF5B-RET G810R; format: cell-based; details: B/KR mutant cell line G810R; read-out: IC50 of RET mutants, G810R
T3 construct: KIF5B (fusion partner); expressed in transfected cells; host or cells: BaF3; the other entry of the earlier key: KIF5B (P33176, Kinesin-1 heavy chain)
T3 sequence (P07949 713-1063 G810R limits assumed): T1 sequence (P07949 713-1063 G810C limits assumed) with C98R
From the text: as §1

KIF5B-RET WT = molecular target: T4, KIF5B-RET WT (Homo sapiens, UniProt P07949); assay: Cell viability assay (CellTiter-Glo) in BaF3 cells expressing KIF5B-RET (B/KR), WT; format: cell-based; details: B/KR cell line, read-out: IC50 of RET mutants, WT
T4 construct: KIF5B (fusion partner); expressed in transfected cells; host or cells: BaF3; the other entry of the earlier key: KIF5B (P33176, Kinesin-1 heavy chain)
T4 sequence (P07949 with tags, fused parts or gaps): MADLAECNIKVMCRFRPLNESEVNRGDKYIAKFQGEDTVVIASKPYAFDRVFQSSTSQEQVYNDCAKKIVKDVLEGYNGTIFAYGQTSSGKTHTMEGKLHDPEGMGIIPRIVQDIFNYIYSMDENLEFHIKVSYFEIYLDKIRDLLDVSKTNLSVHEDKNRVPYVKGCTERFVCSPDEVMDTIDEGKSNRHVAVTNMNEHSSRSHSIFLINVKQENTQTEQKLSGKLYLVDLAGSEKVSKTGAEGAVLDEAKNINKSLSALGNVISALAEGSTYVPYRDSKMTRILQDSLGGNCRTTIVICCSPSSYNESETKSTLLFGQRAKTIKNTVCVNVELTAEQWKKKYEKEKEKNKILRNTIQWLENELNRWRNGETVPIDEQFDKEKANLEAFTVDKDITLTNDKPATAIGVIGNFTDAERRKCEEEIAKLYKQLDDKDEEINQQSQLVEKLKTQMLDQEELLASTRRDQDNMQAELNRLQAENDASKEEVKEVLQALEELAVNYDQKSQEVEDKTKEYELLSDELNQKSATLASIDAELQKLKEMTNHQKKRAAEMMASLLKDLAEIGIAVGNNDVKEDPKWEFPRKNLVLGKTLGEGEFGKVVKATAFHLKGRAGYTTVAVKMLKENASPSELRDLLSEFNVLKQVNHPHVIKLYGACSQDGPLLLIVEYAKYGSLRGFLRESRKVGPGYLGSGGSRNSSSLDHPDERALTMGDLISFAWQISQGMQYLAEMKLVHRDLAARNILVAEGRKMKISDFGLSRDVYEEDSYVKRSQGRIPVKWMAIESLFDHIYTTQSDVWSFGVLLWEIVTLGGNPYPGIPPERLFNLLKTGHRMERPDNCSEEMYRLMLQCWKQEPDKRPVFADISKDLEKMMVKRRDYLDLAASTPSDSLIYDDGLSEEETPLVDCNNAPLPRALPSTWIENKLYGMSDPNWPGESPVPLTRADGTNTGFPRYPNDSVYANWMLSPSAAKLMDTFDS
From the text: as §1

KIF5B-RET G810S = molecular target: T5, KIF5B-RET G810S (Homo sapiens, UniProt P07949, G810S); assay: Cell viability assay (CellTiter-Glo) in BaF3 cells expressing KIF5B-RET G810S; format: cell-based; details: B/KR mutant cell line G810S; read-out: IC50 of RET mutants, G810S
T5 construct: KIF5B (fusion partner); expressed in transfected cells; host or cells: BaF3; the other entry of the earlier key: KIF5B (P33176, Kinesin-1 heavy chain)
T5 sequence (P07949 713-1063 G810S limits assumed): T1 sequence (P07949 713-1063 G810C limits assumed) with C98S
From the text: as §1

KIF5B-RET G810A = molecular target: T6, KIF5B-RET G810A (Homo sapiens, UniProt P07949, G810A); assay: Cell viability assay (CellTiter-Glo) in BaF3 cells expressing KIF5B-RET G810A; format: cell-based; details: B/KR mutant cell line G810A; read-out: IC50 of RET mutants, G810A
T6 construct: KIF5B (fusion partner); expressed in transfected cells; host or cells: BaF3; the other entry of the earlier key: KIF5B (P33176, Kinesin-1 heavy chain)
T6 sequence (P07949 713-1063 G810A limits assumed): T1 sequence (P07949 713-1063 G810C limits assumed) with C98A
From the text: as §1

hERG = hERG (Homo sapiens, UniProt Q12809); assay: hERG inhibition; format: biochemical
Sequence of hERG (Q12809 whole entry): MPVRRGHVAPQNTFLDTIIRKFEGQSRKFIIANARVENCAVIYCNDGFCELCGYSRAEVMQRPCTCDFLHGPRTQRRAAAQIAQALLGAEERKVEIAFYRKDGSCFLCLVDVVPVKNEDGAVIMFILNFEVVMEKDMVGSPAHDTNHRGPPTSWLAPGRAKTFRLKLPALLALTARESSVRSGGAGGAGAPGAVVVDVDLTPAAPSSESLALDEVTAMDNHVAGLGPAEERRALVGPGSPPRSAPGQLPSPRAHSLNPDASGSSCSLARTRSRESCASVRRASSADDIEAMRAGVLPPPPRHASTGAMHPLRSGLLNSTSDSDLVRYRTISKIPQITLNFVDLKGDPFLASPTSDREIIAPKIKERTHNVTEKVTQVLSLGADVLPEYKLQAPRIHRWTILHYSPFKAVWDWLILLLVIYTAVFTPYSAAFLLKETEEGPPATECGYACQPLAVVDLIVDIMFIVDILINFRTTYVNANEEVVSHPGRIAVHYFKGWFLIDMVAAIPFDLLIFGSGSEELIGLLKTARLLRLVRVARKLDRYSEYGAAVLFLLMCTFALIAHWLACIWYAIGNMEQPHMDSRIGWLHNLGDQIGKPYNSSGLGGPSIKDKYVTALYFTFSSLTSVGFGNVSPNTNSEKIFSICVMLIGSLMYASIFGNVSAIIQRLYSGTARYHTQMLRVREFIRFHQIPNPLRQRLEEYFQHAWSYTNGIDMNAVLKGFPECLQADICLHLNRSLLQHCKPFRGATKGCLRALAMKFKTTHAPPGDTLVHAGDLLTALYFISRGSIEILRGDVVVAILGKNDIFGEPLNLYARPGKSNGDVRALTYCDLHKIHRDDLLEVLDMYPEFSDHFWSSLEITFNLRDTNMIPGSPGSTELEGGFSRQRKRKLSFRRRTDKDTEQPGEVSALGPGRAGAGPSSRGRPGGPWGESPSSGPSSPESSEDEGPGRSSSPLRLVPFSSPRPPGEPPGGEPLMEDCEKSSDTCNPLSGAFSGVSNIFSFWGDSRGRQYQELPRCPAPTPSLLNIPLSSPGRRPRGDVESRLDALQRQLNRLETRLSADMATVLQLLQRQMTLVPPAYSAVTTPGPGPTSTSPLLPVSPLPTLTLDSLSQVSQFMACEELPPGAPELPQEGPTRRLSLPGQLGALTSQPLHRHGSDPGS

KIF5B-RET G810V = molecular target: T7, KIF5B-RET G810V (Homo sapiens, UniProt P07949, G810V); assay: Cell viability assay (CellTiter-Glo) in BaF3 cells expressing KIF5B-RET G810V; format: cell-based; details: B/KR mutant cell line G810V; read-out: IC50 of RET mutants, G810V
T7 construct: KIF5B (fusion partner); expressed in transfected cells; host or cells: BaF3 (lentiviral vector); the other entry of the earlier key: KIF5B (P33176, Kinesin-1 heavy chain)
T7 sequence (P07949 713-1063 G810V limits assumed): T1 sequence (P07949 713-1063 G810C limits assumed) with C98V
From the text: as §1

KIF5B-RET V804M = molecular target: T8, KIF5B-RET V804M (Homo sapiens, UniProt P07949, V804M); assay: Cell viability assay (CellTiter-Glo) in BaF3 cells expressing KIF5B-RET V804M; format: cell-based; details: B/KR mutant cell line V804M; read-out: IC50 of RET mutants, V804M
T8 construct: KIF5B (fusion partner); expressed in transfected cells; host or cells: BaF3; the other entry of the earlier key: KIF5B (P33176, Kinesin-1 heavy chain)
T8 sequence (P07949 713-1063 V804M limits assumed): T1 sequence (P07949 713-1063 G810C limits assumed) with V92M, C98G
From the text: as §1

| Compound | effect on B/KR(G810C) CDX tumors (B/KR(G810C) CDX tumors; 50 mg/Kg) | protein-bound [1] [%] | solubility (Solubility at pH 6.8) [µM] | effect on B/KR(G810C) CDX tumors (B/KR(G810C) CDX tumors; 25 mg/Kg) | IC50 (KIF5B-RET G810C) [nM] | IC50 (KIF5B-RET G810D) [nM] | IC50 (KIF5B-RET G810R) [nM] | IC50 (KIF5B-RET WT) [nM] | IC50 (KIF5B-RET G810S) [nM] | IC50 (KIF5B-RET G810A) [nM] | IC50 (hERG) [nM] | IC50 (KIF5B-RET G810V) [nM] | IC50 (KIF5B-RET V804M) [nM] |
| --- | --- | --- | --- | --- | --- | --- | --- | --- | --- | --- | --- | --- | --- |
| CN1CCN(Cc2ccc(NC(=O)c3cncc(C#Cc4cnc(N)c5ncccc45)c3)cc2C(F)(F)F)CC1 [HSN608, reference compound] | tumor regression | 99 | 0.07 (≈ 0.0382 µg/mL) | – | – | – | – | – | – | – | – | – | – |
| CN1CCN(Cc2ccc(NC(=O)c3cncc(C#Cc4cnc(N)nc4)c3)cc2C(F)(F)F)CC1 [Example 2, 5-((2-Aminopyrimidin-5-yl)ethynyl)-N-(4-((4-methylpiperazin-1-yl)methyl)-3-(trifluoromethyl)phenyl)nicotinamide] | – | 94 | 117 (≈ 58 µg/mL) | tumor regression | 12.2 ± 0.63 | 1.47 ± 0.05 | 46.8 ± 1.11 | 3.49 ± 0.16 | 8.02 ± 0.21 | 3.89 ± 0.07 | 23000 | 8.34 ± 0.36 | 20.3 ± 1.09 |
| CN1CCN(Cc2ccc(NC(=O)c3cncc(C#Cc4cnc5[nH]ncc5c4)c3)cc2C(F)(F)F)CC1 [Example 1, 5-((1H-Pyrazolo[3,4-b]pyridin-5-yl)ethynyl)-N-(4-((4-methylpiperazin-1-yl)methyl)-3-(trifluoromethyl)phenyl)nicotinamide] | – | – | – | – | 11.4 ± 0.32 | 5.21 ± 0.36 | 24.5 ± 0.79 | 1.7 ± 0.08 | 7.76 ± 0.33 | 1.56 ± 0.07 | – | 4.1 ± 0.3 | 14.1 ± 0.54 |
